Laboratory results: paper PMC9138505, “Small Molecule 20S Proteasome Enhancer Regulates MYC Protein Stability and Exhibits Antitumor Activity in Multiple Myeloma” (Biomedicines, 2022)
Where “and” joins values, the source holds several entries; their conditions need not be identical. Equal values may be shown once.

Test system: RPMI-8226 cells
Assay: Gene expression profiling, NanoString nCounter PanCancer Pathways Panel, ROSALIND analysis
Type: cell-based, human
Details: RPMI-8226, TCH-165 samples 1-3
Protocol: RPMI-8226 cells were treated with vehicle or TCH-165 (10 μM) for 4 h. Total RNA was obtained using the mirVana miRNA Isolation Kit, with phenol (Thermofisher Scientific; AM1560; Waltham, MA, USA). Total RNA was quantified by Qubit (Thermofisher Scientific; Q32855; Waltham, MA, USA). and gene expression was evaluated against the nCounter® PanCancer Pathways Panel^TM according to the standard NanoString protocol.
Data were analyzed by ROSALIND® [36] with a hyperscale architecture developed by ROSALIND, Inc. (San Diego, CA, USA). Normalization, fold changes and p-values were calculated using criteria provided by NanoString. ROSALIND follows the nCounter® Advanced Analysis protocol of dividing counts within a lane by the geometric mean of the normalizer probes from the same lane. Housekeeping probes to be used for normalization are selected based on the geNorm algorithm, as implemented in the NormqPCR R library. Fold changes and p-values are calculated using the fast method as described in the nCounter Advanced Analysis 2.0 User Manual. The p-value adjustment is performed using the Benjamini–Hochberg method of estimating false discovery rates (FDR). Clustering of genes for the final heatmap of differentially expressed genes was done using the PAM (Partitioning Around Medoids) method using the fpc R library. Hypergeometric distribution was used to analyze the enrichment of pathways, gene ontology, domain structure and other ontologies. The topGO R library was used to determine local similarities and dependencies between GO terms in order to perform Elim pruning correction. Several database sources were referenced for enrichment analysis, including Interpro [40], NCBI [41], MSigDB [42, 43], REACTOME [44], WikiPathways. Enrichment was calculated relative to a set of background genes relevant to the experiment.

Structure (SMILES): CCOC(=O)[C@]1(c2ccccc2)N=C(c2ccc(OC)cc2)N(Cc2ccccc2)[C@@H]1c1ccc(NCc2ccccc2)cc1 [TCH-165]
- PDGFA normalized gene expression: 6.283 and 6.012 and 6.0068
- PDGFB normalized gene expression: 4.649 and 4.855 and 4.437
- PDGFRA normalized gene expression: 4.401 and 4.3768 and 3.876
- PDGFRB normalized gene expression: 4.86 and 4.614 and 4.483
- PGF normalized gene expression: 5.308 and 4.817 and 4.238
- PIK3CA normalized gene expression: 10.0553 and 10.0309 and 10.0578
- PIK3CB normalized gene expression: 6.955 and 6.836 and 6.778
- PIK3CD normalized gene expression: 5.445 and 5.636 and 4.975
- PIK3CG normalized gene expression: 8.477 and 8.424 and 8.357
- PIK3R1 normalized gene expression: 7.74 and 7.729 and 7.668
- PIK3R3 normalized gene expression: 10.4707 and 10.3784 and 10.3886
- PIK3R5 normalized gene expression: 8.581 and 8.361 and 8.483
- PIM1 normalized gene expression: 9.677 and 9.621 and 9.503
- PITX2 normalized gene expression: 3.723 and 3.817 and 3.39
- PKMYT1 normalized gene expression: 9.448 and 9.494 and 9.482
- PLA1A normalized gene expression: 4.571 and 4.7789 and 4.5707
- PLA2G2A normalized gene expression: 5.723 and 5.0613 and 5.549
- PLA2G3 normalized gene expression: 5.955 and 5.7789 and 5.549
- PLA2G4A normalized gene expression: 9.821 and 9.8479 and 9.947
- PLA2G4C normalized gene expression: 3.986 and 4.324 and 4.0682
- PLA2G5 normalized gene expression: 4.208 and 4.855 and 5.0068
- PLA2G10 normalized gene expression: 4.793 and 4.569 and 4.9095
- PLAT normalized gene expression: 5.101 and 4.855 and 4.805
- PLAU normalized gene expression: 5.758 and 5.452 and 5.461
- PLCB1 normalized gene expression: 7.331 and 7.169 and 7.1906
- PLCB4 normalized gene expression: 8.221 and 8.1619 and 8.141
- PLCE1 normalized gene expression: 3.571 and 3.962 and 3.291
- PLCG2 normalized gene expression: 7.802 and 7.657 and 7.688
- PLD1 normalized gene expression: 4.723 and 4.524 and 4.0068
- PML normalized gene expression: 9.305 and 9.103 and 9.111
- POLB normalized gene expression: 8.277 and 8.166 and 8.094
- POLD1 normalized gene expression: 6.955 and 6.97 and 7.225
- POLE2 normalized gene expression: 7.876 and 7.784 and 7.712
- POLR2D normalized gene expression: 10.3534 and 10.1749 and 10.2456
- POLR2H normalized gene expression: 9.625 and 9.653 and 9.593
- POLR2J normalized gene expression: 8.023 and 8.1988 and 7.922
- PPARG normalized gene expression: 5.308 and 4.093 and 4.841
- PPARGC1A normalized gene expression: 5.156 and 4.855 and 4.5707
- PPP2CB normalized gene expression: 9.355 and 9.581 and 9.539
- PPP2R1A normalized gene expression: 10.9153 and 10.8543 and 10.8588
- PPP2R2B normalized gene expression: 5.208 and 3.891 and 3.876
- PPP2R2C normalized gene expression: 4.401 and 4.154 and 4.653
- PPP3CA normalized gene expression: 8.9359 and 8.866 and 8.858
- PPP3CB normalized gene expression: 6.793 and 6.5 and 6.673
- PPP3CC normalized gene expression: 7.784 and 7.44 and 7.5547
- PPP3R1 normalized gene expression: 12.1844 and 12.0743 and 12.0585
- PRDM1 normalized gene expression: 9.955 and 9.965 and 9.796
- PRKAA2 normalized gene expression: 5.445 and 4.927 and 5.238
- PRKACA normalized gene expression: 10.3765 and 10.3832 and 10.3727
- PRKACB normalized gene expression: 9.149 and 8.936 and 8.955
- PRKACG normalized gene expression: 5.955 and 4.996 and 4.975
- PRKAR1B normalized gene expression: 7.319 and 7.093 and 7.231
- PRKAR2A normalized gene expression: 10.8995 and 10.8368 and 10.7359
- PRKAR2B normalized gene expression: 4.924 and 5.5 and 5.291
- PRKCA normalized gene expression: 5.61 and 5.739 and 5.858
- PRKCB normalized gene expression: 5.101 and 5.5 and 5.1271
- PRKCG normalized gene expression: 3.208 and 3.154 and 2.805
- PRKDC normalized gene expression: 10.6509 and 10.6549 and 10.5707
- PRKX normalized gene expression: 6.924 and 6.699 and 6.769
- PRL normalized gene expression: 5.156 and 4.7789 and 4.483
- PRLR normalized gene expression: 4.401 and 4.324 and 4.483
- PROM1 normalized gene expression: 5.488 and 4.817 and 5.1271
- PTCH1 normalized gene expression: 6.423 and 6.1393 and 6.303
- PTEN normalized gene expression: 10.0245 and 10.0523 and 10.0068
- PTPN11 normalized gene expression: 10.4091 and 10.3872 and 10.2825
- PTPRR normalized gene expression: 5.156 and 5.27 and 4.876
- PTTG2 normalized gene expression: 10.7067 and 10.7173 and 10.7103
- RAC1 normalized gene expression: 10.809 and 10.6987 and 10.6841
- RAC2 normalized gene expression: 9.175 and 9.2187 and 9.226
- RAC3 normalized gene expression: 7.412 and 7.085 and 7.42
- RAD21 normalized gene expression: 12.3086 and 12.2658 and 12.2586
- RAD50 normalized gene expression: 8.5605 and 8.589 and 8.653
- RAD51 normalized gene expression: 8.142 and 8.041 and 8.102
- RAD52 normalized gene expression: 7.767 and 7.625 and 7.698
- RAF1 normalized gene expression: 10.0005 and 9.906 and 9.965
- RASA4 normalized gene expression: 8.175 and 8.284 (2×)
- RASAL1 normalized gene expression: 7.884 and 7.864 and 8.034
- RASGRF1 normalized gene expression: 5.355 and 5.27 and 5.1271
- RASGRF2 normalized gene expression: 4.401 and 4.154 and 4.39
- RASGRP1 normalized gene expression: 3.571 and 3.27 and 2.805
- RASGRP2 normalized gene expression: 5.355 and 4.7789 and 5.184
- RB1 normalized gene expression: 10.4258 and 10.2516 and 10.3605
- RBX1 normalized gene expression: 11.212 and 11.2858 and 11.2821
- RELA normalized gene expression: 9.023 and 9.033 and 8.932
- RELN normalized gene expression: 3.208 and 3.154 and 2.653
- RET normalized gene expression: 4.488 and 3.154 and 4.1271
- RFC3 normalized gene expression: 10.5818 and 10.4756 and 10.5331
- RFC4 normalized gene expression: 10.5805 and 10.6642 and 10.6099
- RHOA normalized gene expression: 10.324 and 10.1814 and 10.1759
- RIN1 normalized gene expression: 5.308 and 5.324 and 5.211
- RNF43 normalized gene expression: 5.044 and 4.569 and 4.528
